From US12565489B2, “Heterocyclyl pyrimidines and triazines as novel fungicides” (Bayer Aktiengesellschaft, priority 2020, dated 2026)

Experiments:
[1] = Measurement of Log P values by HPLC on reversed phase columns (EEC directive 79/831 Annex V.A8); format: physicochemical; settings: LogP
Method: Measurement of Log P values as provided herein was performed according to EEC directive 79/831 Annex V.A8 by HPLC (High Performance Liquid Chromatography) on reversed phase columns with the following methods: • ^[a] Log P value is determined by measurement of LC-UV, in an acidic range, with 0.1% formic acid in water and acetonitrile as eluent (linear gradient from 10% acetonitrile to 95% acetonitrile). • ^[b] Log P value is determined by measurement of LC-UV, in a neutral range, with 0.001 molar ammonium acetate solution in water and acetonitrile as eluent (linear gradient from 10% acetonitrile to 95% acetonitrile). • ^[c] Log P value is determined by measurement of LC-UV, in an acidic range, with 0.1% phosphoric acid and acetonitrile as eluent (linear gradient from 10% acetonitrile to 95% acetonitrile).
If more than one Log P value is available within the same method, all the values are given and separated by “+”.
Calibration was done with straight-chain alkan2-ones (with 3 to 16 carbon atoms) with known Log P values (measurement of Log P values using retention times with linear interpolation between successive alkanones). Lambda-max-values were determined using UV-spectra from 200 nm to 400 nm and the peak values of the chromatographic signals

Alternaria alternata = Alternaria alternata in vitro cell test; format: cell-based; settings: 120 h, 20 ppm of active ingredient, 5 days incubation, liquid culture, spectrometric measurement of mycelium growth, read-out: efficacy (inhibition of fungal growth)
Method: (§1) • Solvent: DMSO • Culture medium: 14.6 g anhydrous D-glucose (VWR), 7.1 g Mycological Peptone (Oxoid), 1.4 g granulated Yeast Extract (Merck), QSP 1 liter • Inoculum: spore suspension Fungicides were solubilized in DMSO and the solution used to prepare the required range of concentrations. […] A spore suspension of A. alternata was prepared and diluted to the desired spore density. Fungicides were evaluated for their ability to inhibit spore germination and mycelium growth in liquid culture assay. The compounds were added in the desired concentration to the culture medium with spores. After 5 days incubation, fungi-toxicity of compounds was determined by spectrometric measurement of mycelium growth. Inhibition of fungal growth was determined by comparing the absorbance values in wells containing the fungicides with the absorbance in control wells without fungicides.

Pyrenophora teres = Pyrenophora teres in vitro cell test; format: cell-based; settings: 144 h, 20 ppm of active ingredient, 6 days incubation, liquid culture, spectrometric measurement of mycelium growth, read-out: efficacy (inhibition of fungal growth)
Method: as §1, with “P. teres” for “A. alternata”, “6” for “5”

Botrytis cinerea [2] = assay: Botrytis cinerea in vitro cell test; format: cell-based; settings: 144 h, 20 ppm of active ingredient, 6 days incubation, liquid culture, spectrometric measurement of mycelium growth, read-out: efficacy (inhibition of fungal growth)
Method: (§2) • Solvent: DMSO • Culture medium: 1 g KH2PO4 (VWR), 1 g K2HPO4 (VWR), 0.5 g Urea (VWR), 3 g KNO3 (Prolabo), 10 g saccharose (VWR), 0.5 g MgSO4, 7H2O (Sigma), 0.07 g CaCl2, 2H2O (Prolabo), 0.2 mg MnSO4, H2O (Sigma), 0.6 mg CuSO4, 5H2O (Sigma), 7.9 mg ZnSO4, 7H2O (Sigma), 0.1 mg H3BO3 (Merck), 0.14 mg NaMoO4, 2H2O (Sigma), 2 mg thiamine (Sigma), 0.1 mg biotine (VWR), 4 mg FeSO4, 7H2O (Sigma), QSP 1 liter • Inoculum: spore suspension Fungicides were solubilized in DMSO and the solution used to prepare the required range of concentrations. […] A spore suspension of B. cinerea was prepared and diluted to the desired spore density. Fungicides were evaluated for their ability to inhibit spore germination and mycelium growth in liquid culture assay. The compounds were added in the desired concentration to the culture medium with spores. After 6 days incubation, fungi-toxicity of compounds was determined by spectrometric measurement of mycelium growth. Inhibition of fungal growth was determined by comparing the absorbance values in wells containing the fungicides with the absorbance in control wells without fungicides.

Septoria tritici = Septoria tritici in vitro cell test; format: cell-based; settings: Zymoseptoria tritici, 168 h; 20 ppm of active ingredient; 7 days incubation; liquid culture, spectrometric measurement of mycelium growth; read-out: efficacy (inhibition of fungal growth)
Method: as §2, with “S. tritici” for “B. cinerea”, “After 6 days incubation, fungi-toxicity of compounds was determined by spectrometric measurement of mycelium growth.” left out

Alternaria brassicae = assay: In vivo preventive test on Alternaria brassicae (leaf spot on radish or cabbage); settings: 144 h, 500 ppm of active ingredient, preventive spray on young radish or cabbage plants, evaluated 6 days after inoculation, read-out: efficacy
Method: (§3) The active ingredients were made soluble and homogenized in a mixture of Dimethyl sulfoxide/Acetone//Tween®80 and then diluted in water to the desired concentration. The young plants of radish or cabbage were treated by spraying the active ingredient prepared as described above. Control plants were treated only with an aqueous solution of Acetone/Dimethyl sulfoxide/Tween® 80. After 24 hours, the plants were contaminated by spraying the leaves with an aqueous suspension of Alternaria brassicae spores.

Botrytis cinerea [3] = assay: In vivo preventive test on Botrytis cinerea (grey mould); settings: 500 ppm of active ingredient, preventive spray on young gherkin or cabbage plants, evaluated 4 to 5 days after inoculation, read-out: efficacy
Method: as §3, with “gherkin” for “radish”, “Botrytis cinerea” for “Alternaria brassicae”

Sphaerotheca fuliginea = assay: In vivo preventive test on Sphaerotheca fuliginea (powdery mildew on cucurbits); settings: Podosphaera fuliginea, 192 h; 500 ppm of active ingredient; preventive spray on young gherkin plants; evaluated 8 days after inoculation; read-out: efficacy
Method: as §3, with “gherkin” for “radish or cabbage”, “Sphaerotheca fuliginea” for “Alternaria brassicae”

[4] = test system: Colletotrichum lindemuthianum; assay: In vivo preventive test on Colletotrichum lindemuthianum (leaf spot on bean); settings: 168 h, 500 ppm of active ingredient, preventive spray on young bean plants, evaluated 7 days after inoculation, read-out: efficacy
Method: as §3, with “bean” for “radish or cabbage”, “Colletotrichum lindemuthianum” for “Alternaria brassicae”

Pyricularia oryzae = assay: microbe, parasite or virus in culture; format: cell-based; settings: 120 h, read-out: efficacy (inhibition of fungal growth)
[5] = test system: Colletotrichum lindemuthianum; assay: Colletotrichum lindemuthianum in vitro cell test; format: cell-based; settings: 144 h, 20 ppm of active ingredient, 6 days incubation, liquid culture, spectrometric measurement of mycelium growth, read-out: efficacy (inhibition of fungal growth)
Method: as §1, with “of C. lindemuthianum” for “of A. alternata”, “inhibit spores” for “inhibit spore”, “After 6” for “After 5”

Compound	chromatographic logP [1]	inhibition at 20 ppm (Alternaria alternata) [%]	inhibition at 20 ppm (Pyrenophora teres) [%]	inhibition at 20 ppm (Botrytis cinerea [2]) [%]	inhibition at 20 ppm (Septoria tritici) [%]	pest or weed control at 500 ppm (Alternaria brassicae) [%]	pest or weed control at 500 ppm (Botrytis cinerea [3]) [%]	pest or weed control at 500 ppm (Sphaerotheca fuliginea) [%]	pest or weed control at 500 ppm [4] [%]	inhibition at 20 ppm (Pyricularia oryzae) [%]	inhibition at 20 ppm [5] [%]
Cc1ncc(Oc2cccc(C(F)(F)F)c2)c(C2=NOC[C@@H](Cc3ccc(OC(F)F)cc3Cl)N2)n1 (racemic) [Compound I-027]	4.15	90 to 100	90 to 100	90 to 100	90 to 100	90 to 100	90 to 100	90 to 100	90 to 100		
Cc1ncc(Oc2cccc(Cl)c2)c(C2=NO[C@@H](F)[C@@H](c3ccc(Cl)cc3)N2)n1 (racemic) [Compound I-028]	3.79	90 to 100	90 to 100	90 to 100	90 to 100					90 to 100	
Cc1ccc(C[C@@H]2CON=C(c3nc(C)ncc3Oc3cccc(OC(F)F)c3)N2)c(C)c1 (racemic) [Compound I-007]	3.94	70 to 79	90 to 100	90 to 100		90 to 100	90 to 100	90 to 100	90 to 100		90 to 100
Cc1ncc(Oc2cccc(C(F)(F)F)c2)c(C2=NOC[C@@H](Cc3csc(C(F)(F)F)c3)N2)n1 (racemic) [Compound I-015]	4.17	70 to 79	90 to 100	90 to 100		80 to 89	70 to 79	80 to 89	90 to 100		90 to 100
CSc1ncc(Oc2cccc(C(F)(F)F)c2)c(C2=NOC[C@@H](Cc3ccc(C)cc3Cl)N2)n1 (racemic) [Compound I-020]	5.14		90 to 100	90 to 100	70 to 79	90 to 100	90 to 100	90 to 100			90 to 100
Cc1ccc([C@@H]2CON=C(c3nc(C)ncc3Oc3cccc(Cl)c3)N2)c(C)c1 (racemic) [Compound I-034]	3.8	90 to 100	90 to 100	90 to 100							70 to 79
Cc1ncc(Oc2cccc(Cl)c2)c(C2=NOC[C@@H](c3ccc4c(c3)OCCO4)N2)n1 (racemic) [Compound I-031]	3.04	90 to 100	90 to 100	90 to 100						90 to 100	90 to 100
COc1ccc(C[C@@H]2CON=C(c3nc(C)ncc3Oc3cccc(C(F)(F)F)c3)N2)c(Cl)c1 (racemic) [Compound I-012]	4.08		90 to 100	90 to 100		90 to 100	90 to 100	90 to 100	90 to 100		
Cc1ccc(CC(CCl)NC(=O)c2nc(C)ncc2Br)c(C)c1 (racemic) [Compound 12-01, 5-bromo-N-[(2RS)-1-chloro-3-(2,4-dimethylphenyl)propan-2-yl]-2-methyl-pyrimidine-4-carboxamide]	3.66										
Cc1ccc(CC2CCN=C(c3nc(C)ncc3Oc3cccc(Cl)c3)N2)c(C)c1 (racemic) [Compound I-022, 5-(3-chlorophenoxy)-2-methyl-4-[(6RS)-6-[(2,4-dimethylphenyl)methyl]-1,4,5,6-tetrahydropyrimidin-2-yl]pyrimidine]	2.59										
